Laboratory results: patent US7737123B2, “Multidrug resistant anticancer anthracyclines” (The Ohio State University Research Foundation, priority 2005, dated 2010)
Where two headings read alike, the source gives them in different places.

How the values were obtained:
[1] = tested on: leukemia cells K562; test: Cytotoxicity in drug-sensitive leukemia K562 cells by MTS assay; type: cell-based; settings: Homo sapiens
Description: The drug resistance index (DRI, ratio of IC50 in drug-resistant cells over IC50 in drug-sensitive cells) is a good indicator of drug's ability to overcome resistance.
The anticancer activities of Compounds 1-6 were examined in leukemia cells K562 and doxorubicin-resistant K562/Dox cells by MTS assay. The drug-resistant K562/Dox cell line was induced by doxorubicin treatment. The cell line was cultured in 0.1 μM doxorubicin one week/per month, followed by 10 days culture without doxrubicin before experiment. This is to maintain similar high levels of P-gp expression in each experiment. In drug-resistant K562 cells, MDR1 mRNA was induced by 600-fold higher than drug-sensitive K562 cells as measured by real-time PCR (data not shown). […] Then 20 μL MTS/PMS assay solution was added to each well and the absorbance was recorded. The cell survival was calculated as percentage of cell control group without treatment. The anticancer activities are summarized in Table 2 and graphically illustrated in FIG. 5. The IC50 values were calculated by WinNonlin 4.1 (Pharsight) from the dose-response curves of percentage of cell growth with the model: E=Emax−(Emax−E0)×[C/(C+EC50)]

[2] = tested on: doxorubicin-resistant K562/Dox cells; test: Cytotoxicity in doxorubicin-resistant K562/Dox cells by MTS assay; type: cell-based; settings: for IC50: Homo sapiens, drug-resistant K562/Dox, MTS assay, 72 hours; for DRI (drug resistance index): ratio of IC50 in drug-resistant cells over IC50 in drug-sensitive cells
Description: The drug-resistant K562/Dox cell line was induced by doxorubicin treatment. The cell line was cultured in 0.1 μM doxorubicin one week/per month, followed by 10 days culture without doxrubicin before experiment. This is to maintain similar high levels of P-gp expression in each experiment. […] Then 20 μL MTS/PMS assay solution was added to each well and the absorbance was recorded. The cell survival was calculated as percentage of cell control group without treatment. […] The IC50 values were calculated by WinNonlin 4.1 (Pharsight) from the dose-response curves of percentage of cell growth with the model: E=Emax−(Emax−E0)×[C/(C+EC50)]

[3] = tested on: K562/Dox; type: cell-based
[4] = tested on: drug-resistant leukemia K562/Dox xenograft; test: K562/Dox leukemia xenograft mouse model; settings: for tumor growth inhibition (in words): 5 or 10 mg/kg intraperitoneally twice per week for three weeks, one week after dose
Description: In this animal model, 10^7 drug-resistant leukemia K562/Dox was injected subcutaneously into nude mice. […] The tumor volume was measured every three days.

[5] = tested on: colon cancer cell line SW620 cells; test: Cytotoxicity in colon cancer cell line SW620 with MTS assay; type: cell-based; settings: for IC50: read-out: IC50 in SW620
Description: The cytotoxicity of compounds DNR-1-DNR-6 prepared in this manner was examined in colon cancer cell line SW620 cells with MTS assay. […] Then 20 μL MTS/PMS assay solution was added to each well and the absorbance was recorded. The cell survival was calculated as percentage of cell control group without treatment. The IC50 of all these compounds against colon cancer cell line SW620 are summarized in Table 1 and graphically illustrated in FIGS. 1A and 1B. These IC50 values were calculated by WinNonlin 4.1 (Pharsight) from the dose-response curves of percentage of cell growth with the model: E=Emax−(Emax−E0)×[C/(C+EC50)].

[6] = biological target: T1, P-gp (Homo sapiens, UniProt P08183); test: P-gp export (uptake and efflux by FACS) in K562/Dox cells with or without CsA; type: cell-based; settings: CsA 5 μM, 30 min incubation
T1 construct: endogenous in cells; host or cells: K562/Dox (doxorubicin-induced drug-resistant K562 leukemia cells)
T1 sequence (P08183 whole entry): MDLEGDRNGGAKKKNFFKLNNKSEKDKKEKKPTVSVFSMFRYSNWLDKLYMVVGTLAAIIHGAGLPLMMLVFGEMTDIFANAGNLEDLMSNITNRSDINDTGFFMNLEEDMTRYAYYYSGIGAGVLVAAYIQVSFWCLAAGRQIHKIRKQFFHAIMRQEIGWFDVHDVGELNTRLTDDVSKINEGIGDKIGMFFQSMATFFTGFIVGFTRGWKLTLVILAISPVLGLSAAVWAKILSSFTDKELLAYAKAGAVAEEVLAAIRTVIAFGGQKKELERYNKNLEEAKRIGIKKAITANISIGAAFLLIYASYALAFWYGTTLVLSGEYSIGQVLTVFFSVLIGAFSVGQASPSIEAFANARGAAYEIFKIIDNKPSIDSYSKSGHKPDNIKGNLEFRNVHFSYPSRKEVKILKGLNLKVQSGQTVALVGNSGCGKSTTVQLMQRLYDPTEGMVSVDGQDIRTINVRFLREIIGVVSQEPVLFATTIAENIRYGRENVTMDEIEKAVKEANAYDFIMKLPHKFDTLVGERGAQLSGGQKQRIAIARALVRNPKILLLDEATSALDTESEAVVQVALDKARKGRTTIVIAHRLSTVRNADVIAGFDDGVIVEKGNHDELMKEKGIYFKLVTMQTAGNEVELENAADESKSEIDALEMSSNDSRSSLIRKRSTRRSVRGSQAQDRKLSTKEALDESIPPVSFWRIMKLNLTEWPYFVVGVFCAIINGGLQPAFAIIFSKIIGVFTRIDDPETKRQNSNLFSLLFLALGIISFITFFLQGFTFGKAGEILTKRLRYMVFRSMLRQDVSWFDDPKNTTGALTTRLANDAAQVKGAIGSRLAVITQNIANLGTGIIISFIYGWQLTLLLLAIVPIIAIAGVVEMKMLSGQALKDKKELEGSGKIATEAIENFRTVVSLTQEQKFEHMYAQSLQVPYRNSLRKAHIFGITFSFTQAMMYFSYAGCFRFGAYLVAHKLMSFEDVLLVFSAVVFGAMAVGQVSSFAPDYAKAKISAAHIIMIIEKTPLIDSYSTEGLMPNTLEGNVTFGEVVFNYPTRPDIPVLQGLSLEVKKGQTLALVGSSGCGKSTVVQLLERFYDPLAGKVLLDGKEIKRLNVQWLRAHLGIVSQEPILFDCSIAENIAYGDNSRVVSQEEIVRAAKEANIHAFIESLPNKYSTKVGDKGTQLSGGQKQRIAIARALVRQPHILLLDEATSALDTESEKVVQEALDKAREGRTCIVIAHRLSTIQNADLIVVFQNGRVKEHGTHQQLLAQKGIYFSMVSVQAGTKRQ

[7] = drug-sensitive K562, MTS assay, 72 hours, read-out: IC50 in K562
[8] = 10 mg/kg twice per week for three weeks
[9] = drug-sensitive K562, values given in text in nM, read-out: IC50 against K562

| SMILES | IC50 [1, 7] [nM] | DRI (drug resistance index) [2] | IC50 [1, 9] [nM] | IC50 ([2]; K562, 72 h) [nM] | IC50 ([5]; Homo sapiens, SW-620, 72 h) [nM] | other results |
| --- | --- | --- | --- | --- | --- | --- |
| COc1cccc2c1C(=O)c1c(O)c3c(c(O)c1C2=O)C[C@@](O)(C(C)=O)C[C@@H]3OC1CC(N=[N+]=[N-])C(O)C(C)O1 (stereo partly drawn) [ADNR, 3′-azido-deamino-daunorubicin] | 75 | 13 | – | – | – | fold more active than DNR against drug-resistant K562 cells [2]: at least 5 fold; IC50 [2]: 1000 nM; DRI (drug resistance index) ([2]; listed as 8): 13.3; fold lower DRI than that of DNR ([2]; versus DNR): 25 fold; cell killing effect, drug alone ([3]; 1 μM, K562/Dox, without CsA): more than 50%; cell killing effect in combination with CsA ([3]; drug 1 μM plus CsA 5 μM, K562/Dox): did not change the cell killing effects; fold higher maximum growth inhibition rate than DNR ([4]; 5 mg/kg): 2.5 fold; body weight decrease [4, 8]: did not show any significant body weight change; survival after 50 days [4, 8]: 100%; tumor growth inhibition (in words) [4]: significantly inhibited tumor growth |
| COc1cccc2c1C(=O)c1c(O)c3c(c(O)c1C2=O)C[C@@](O)(C(C)=O)C[C@@H]3OC1CC(N=[N+]=[N-])C(OC2CCC(O)C(C)O2)C(C)O1 (stereo partly drawn) [Compound 1] | 787 | 2.45 | 200 to 1100 | – | – | – |
| COc1cccc2c1C(=O)c1c(O)c3c(c(O)c1C2=O)C[C@@](O)(C(C)=O)C[C@@H]3OC1CC(N=[N+]=[N-])C(OC2CC(O)C(O)C(C)O2)C(C)O1 (stereo partly drawn) [Compound 2] | 287 | 18.94 | 200 to 1100 | 5440 | – | – |
| COc1cccc2c1C(=O)c1c(O)c3c(c(O)c1C2=O)C[C@@](O)(C(C)=O)C[C@@H]3OC1CC(N=[N+]=[N-])C(OC2CC(C)(OC)C(O)C(C)O2)C(C)O1 (stereo partly drawn) [Compound 4] | 225 | 53.64 | 200 to 1100 | 12100 | – | – |
| COc1cccc2c1C(=O)c1c(O)c3c(c(O)c1C2=O)C[C@@](O)(C(C)=O)C[C@@H]3OC1CC(N=[N+]=[N-])C(OC2CC(N=[N+]=[N-])C(O)C(C)O2)C(C)O1 (stereo partly drawn) [Compound 6] | 1130 | 5.64 | – | 6390 | – | – |
| COc1cccc2c1C(=O)c1c(O)c3c(c(O)c1C2=O)C[C@@](O)(C(C)=O)C[C@@H]3O[C@H]1C[C@H](N)[C@H](O)[C@H](C)O1 [DNR, daunorubicin, reference compound] | 15 | – | 15 | > 5000 | 33.4 | effect of P-gp inhibitor (CsA) on retention of drug in K562/Dox cells, uptake and efflux phases [6]: significantly inhibited the drug efflux and increased drug accumulation; cell killing effect in combination with CsA [3]: more than 70%; cell killing effect, drug alone [3]: 30%; time by which 50% mice died ([4]; 10 mg/kg): < 20 days; body weight decrease [4, 8]: more than 70%; time by which all mice died ([4]; 10 mg/kg, due to both tumor growth and drug toxicity): < 30 days; tumor growth inhibition (in words) [4]: significantly inhibited tumor growth |
| COc1cccc2c1C(=O)c1c(O)c3c(c(O)c1C2=O)C[C@@](O)(C(C)=O)C[C@@H]3OC1OC(C)C(O)C(O)C1O (stereo partly drawn) [DNR-1] | – | – | – | – | 265 | – |
| COc1cccc2c1C(=O)c1c(O)c3c(c(O)c1C2=O)C[C@@](O)(C(C)=O)C[C@@H]3OC1CC(C)(OC)C(O)C(C)O1 (stereo partly drawn) [DNR-3] | – | – | – | – | > 1000 | – |
| COc1cccc2c1C(=O)c1c(O)c3c(c(O)c1C2=O)C[C@@](O)(C(C)=O)C[C@@H]3OC1CC(OC)C(O)C(C)O1 (stereo partly drawn) [DNR-4] | – | – | – | – | 104 | – |
| COc1cccc2c1C(=O)c1c(O)c3c(c(O)c1C2=O)C[C@@](O)(C(C)=O)C[C@@H]3OC1CCC(O)C(C)O1 (stereo partly drawn) [DNR-5] | – | – | – | – | 350 | – |
| COc1cccc2c1C(=O)c1c(O)c3c(c(O)c1C2=O)C[C@@](O)(C(C)=O)C[C@@H]3OC1CCC(N=[N+]=[N-])C(C)O1 (stereo partly drawn) [DNR-6] | – | – | – | – | > 1000 | cytotoxicity in SW620 (in words) ([5]; FIG. 1B): lost its cytotoxicity |
| COc1cccc2c1C(=O)c1c(O)c3c(c(O)c1C2=O)C[C@@](O)(C(C)=O)C[C@@H]3O [DNR-A, reference compound] | – | – | – | – | – | fold lower cytotoxicity than compounds DNR-1-DNR-6 [5]: 70-100 fold; IC50 ([5]; MTS assay, 72 hours): > 2000 nM |
